# Reference: patent US20260015358A1, “BICYCLIC DERIVATIVES, COMPOSITIONS AND USES THEREOF” (Danatlas Pharmaceuticals Co., Ltd., priority 2023, published 2026)
# pIC50: −log10 of the molar value.
# Columns and labels:
# [1] = target: T1, WRN [UniPro: Q14191 (WRN_HUMAN), N500-C946] (Homo sapiens (Human), UniProt Q14191); assay: WRN ATPase assay (ADP-Glo); format: biochemical; settings: WRN enzymatic activity assay
# [2] = target: T1, WRN [UniPro: Q14191 (WRN_HUMAN), N500-C946]; assay: WRN unwinding assay (FORKF DNA, fluorescence); format: biochemical; settings: Table 14
# T1 sequence (Q14191 500-946): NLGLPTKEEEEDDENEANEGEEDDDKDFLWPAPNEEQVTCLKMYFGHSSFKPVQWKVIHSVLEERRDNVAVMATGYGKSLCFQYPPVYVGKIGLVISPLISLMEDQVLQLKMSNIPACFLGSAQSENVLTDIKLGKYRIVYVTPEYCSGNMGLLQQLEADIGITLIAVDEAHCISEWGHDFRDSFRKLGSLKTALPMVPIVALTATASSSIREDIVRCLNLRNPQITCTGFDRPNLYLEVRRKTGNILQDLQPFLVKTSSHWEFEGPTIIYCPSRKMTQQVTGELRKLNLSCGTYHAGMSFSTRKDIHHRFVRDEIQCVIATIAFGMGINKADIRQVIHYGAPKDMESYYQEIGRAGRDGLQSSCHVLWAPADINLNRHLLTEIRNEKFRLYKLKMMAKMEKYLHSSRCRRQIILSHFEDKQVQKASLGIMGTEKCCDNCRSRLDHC
pIC50 [1],pIC50 [2],Structure (SMILES)
6.00 to 7.00,> 7.00,"CCc1c(N2CCN(C(=O)CNC(=O)c3ccccc3F)CC2)c(=O)n2nc(C3=CCOCC3)nc2n1CC(=O)Nc1cc(F)c(C(F)(F)F)cc1C [Example 144, N-(2-(4-(2-(3,6-Dihydro-2H-pyran-4-yl)-5-ethyl-4-(2-((5-fluoro-2-methyl-4-(trifluoromethyl)phenyl)amino)-2-oxoethyl)-7-oxo-4,7-dihydro-[1,2,4]triazolo[1,5-a]pyrimidin-6-yl)piperazin-1-yl)-2-oxoethyl)-2-fluorobenzamide]"
6.00 to 7.00,6.00 to 7.00,"CCc1c(N2CCN(C(=O)c3cnn4cccc4c3O)CC2)c(=O)n2nc(C3=CCOCC3)nc2n1CC(=O)Nc1sc(C)cc1Br [Example 146, N-(3-Bromo-5-methylthiophen-2-yl)-2-(2-(3,6-dihydro-2H-pyran-4-yl)-5-ethyl-6-(4-(4-hydroxypyrrolo[1,2-b]pyridazine-3-carbonyl)piperazin-1-yl)-7-oxo-[1,2,4]triazolo[1,5-a]pyrimidin-4(7H)-yl)acetamide]"
> 7.00,> 7.00,"CCc1c(N2CCN(C(=O)CNC(=O)c3ccccc3F)CC2)c(=O)n2nc(C3=CCOCC3)nc2n1CC(=O)Nc1ccc(C(F)(F)F)cc1C [Example 147, N-(2-(4-(2-(3,6-Dihydro-2H-pyran-4-yl)-5-ethyl-4-(2-((2-methyl-4-(trifluoromethyl)phenyl)amino)-2-oxoethyl)-7-oxo-4,7-dihydro-[1,2,4]triazolo[1,5-a]pyrimidin-6-yl)piperazin-1-yl)-2-oxoethyl)-2-fluorobenzamide]"
> 7.00,> 7.00,"CCc1c(N2CCN(C(=O)CNC(=O)c3ccccc3F)CC2)c(=O)n2nc(C3=CCOCC3)nc2n1CC(=O)Nc1ccc(C(F)(F)F)cc1 [Example 148, N-(2-(4-(2-(3,6-Dihydro-2H-pyran-4-yl)-5-ethyl-7-oxo-4-(2-oxo-2-((4-(trifluoromethyl)phenyl)amino)ethyl)-4,7-dihydro-[1,2,4]triazolo[1,5-a]pyrimidin-6-yl)piperazin-1-yl)-2-oxoethyl)-2-fluorobenzamide]"
> 7.00,> 7.00,"CCc1c(N2CCN(C(=O)CNC(=O)c3ccccc3F)CC2)c(=O)n2nc(C3=CCOCC3)nc2n1CC(=O)Nc1ccc(C(F)(F)F)cc1F [Example 149, N-(2-(4-(2-(3,6-Dihydro-2H-pyran-4-yl)-5-ethyl-4-(2-((2-fluoro-4-(trifluoromethyl)phenyl)amino)-2-oxoethyl)-7-oxo-4,7-dihydro-[1,2,4]triazolo[1,5-a]pyrimidin-6-yl)piperazin-1-yl)-2-oxoethyl)-2-fluorobenzamide]"
> 7.00,> 7.00,"CCc1c(N2CCN(C(=O)CNC(=O)c3ccccc3F)CC2)c(=O)n2nc(C3=CCOCC3)nc2n1CC(=O)Nc1ccc(F)cc1F [Example 150, N-(2-(4-(4-(2-((2,4-Difluorophenyl)amino)-2-oxoethyl)-2-(3,6-dihydro-2H-pyran-4-yl)-5-ethyl-7-oxo-4,7-dihydro-[1,2,4]triazolo[1,5-a]pyrimidin-6-yl)piperazin-1-yl)-2-oxoethyl)-2-fluorobenzamide]"
6.00 to 7.00,> 7.00,"CCc1c(N2CCN(C(=O)CNC(=O)c3ccccc3F)CC2)c(=O)n2nc(C3=CCOCC3)nc2n1CC(=O)Nc1sc(C)cc1Br [Example 152, N-(2-(4-(4-(2-((3-bromo-5-methylthiophen-2-yl)amino)-2-oxoethyl)-2-(3,6-dihydro-2H-pyran-4-yl)-5-ethyl-7-oxo-4,7-dihydro-[1,2,4]triazolo[1,5-a]pyrimidin-6-yl)piperazin-1-yl)-2-oxoethyl)-2-fluorobenzamide]"
6.00 to 7.00,> 7.00,"CCc1c(N2CCN(C(=O)CNC(=O)c3ccccc3F)CC2)c(=O)n2nc(C3=CCOCC3)nc2n1CC(=O)Nc1ccc(C)s1 [Example 153, N-(2-(4-(2-(3,6-Dihydro-2H-pyran-4-yl)-5-ethyl-4-(2-((5-methylthiophen-2-yl)amino)-2-oxoethyl)-7-oxo-4,7-dihydro-[1,2,4]triazolo[1,5-a]pyrimidin-6-yl)piperazin-1-yl)-2-oxoethyl)-2-fluorobenzamide]"
> 7.00,> 7.00,"CCc1c(N2CCN(C(=O)CNC(=O)c3ccccc3F)CC2)c(=O)n2nc(C3=CCOCC3)nc2n1CC(=O)Nc1cc(C)cs1 [Example 154, N-(2-(4-(2-(3,6-Dihydro-2H-pyran-4-yl)-5-ethyl-4-(2-((4-methylthiophen-2-yl)amino)-2-oxoethyl)-7-oxo-4,7-dihydro-[1,2,4]triazolo[1,5-a]pyrimidin-6-yl)piperazin-1-yl)-2-oxoethyl)-2-fluorobenzamide]"
> 7.00,> 7.00,"CCc1c(N2CCN(C(=O)CNC(=O)c3ccccc3F)CC2)c(=O)n2nc(C3=CCOCC3)nc2n1CC(=O)Nc1cnc(C(F)(F)F)s1 [Example 157, N-(2-(4-(2-(3,6-Dihydro-2H-pyran-4-yl)-5-ethyl-7-oxo-4-(2-oxo-2-((2-(trifluoromethyl)thiazol-5-yl)amino)ethyl)-4,7-dihydro-[1,2,4]triazolo[1,5-a]pyrimidin-6-yl)piperazin-1-yl)-2-oxoethyl)-2-fluorobenzamide]"
> 7.00,> 7.00,"CCc1c(N2CCN(C(=O)CNC(=O)c3ccccc3F)CC2)c(=O)n2nc(C3=CCOCC3)nc2n1CC(=O)Nc1cc(Br)cs1 [Example 161, N-(2-(4-(4-(2-((4-Bromothiophen-2-yl)amino)-2-oxoethyl)-2-(3,6-dihydro-2H-pyran-4-yl)-5-ethyl-7-oxo-4,7-dihydro-[1,2,4]triazolo[1,5-a]pyrimidin-6-yl)piperazin-1-yl)-2-oxoethyl)-2-fluorobenzamide]"
6.00 to 7.00,6.00 to 7.00,"CCc1c(N2CCN(C(=O)CNC(=O)c3ccccc3F)CC2)c(=O)n2nc(C3=CCOCC3)nc2n1CC(=O)Nc1cc(C(F)(F)F)n(C)n1 [Example 162, N-(2-(4-(2-(3,6-Dihydro-2H-pyran-4-yl)-5-ethyl-4-(2-((1-methyl-5-(trifluoromethyl)-1H-pyrazol-3-yl)amino)-2-oxoethyl)-7-oxo-4,7-dihydro-[1,2,4]triazolo[1,5-a]pyrimidin-6-yl)piperazin-1-yl)-2-oxoethyl)-2-fluorobenzamide]"
> 7.00,> 7.00,"CCc1c(N2CCN(C(=O)CNC(=O)c3ccccc3F)CC2)c(=O)n2nc(C3=CCOCC3)nc2n1CC(=O)Nc1ccc(C(F)(F)F)nc1Cl [Example 163, N-(2-(4-(4-(2-((2-Chloro-6-(trifluoromethyl)pyridin-3-yl)amino)-2-oxoethyl)-2-(3,6-dihydro-2H-pyran-4-yl)-5-ethyl-7-oxo-4,7-dihydro-[1,2,4]triazolo[1,5-a]pyrimidin-6-yl)piperazin-1-yl)-2-oxoethyl)-2-fluorobenzamide]"
> 7.00,> 7.00,"CCc1c(N2CCN(C(=O)CNC(=O)C3CC3)CC2)c(=O)n2nc(C3=CCOCC3)nc2n1CC(=O)Nc1ccc(C(F)(F)F)cc1Cl [Example 165, N-(2-(4-(4-(2-((2-Chloro-4-(trifluoromethyl)phenyl)amino)-2-oxoethyl)-2-(3,6-dihydro-2H-pyran-4-yl)-5-ethyl-7-oxo-4,7-dihydro-[1,2,4]triazolo[1,5-a]pyrimidin-6-yl)piperazin-1-yl)-2-oxoethyl)cyclopropanecarboxamide]"
6.00 to 7.00,> 7.00,"CCc1c(N2CCN(C(=O)CNC(=O)N3CCCC3)CC2)c(=O)n2nc(C3=CCOCC3)nc2n1CC(=O)Nc1ccc(C(F)(F)F)cc1Cl [Example 166, N-(2-(4-(4-(2-((2-Chloro-4-(trifluoromethyl)phenyl)amino)-2-oxoethyl)-2-(3,6-dihydro-2H-pyran-4-yl)-5-ethyl-7-oxo-4,7-dihydro-[1,2,4]triazolo[1,5-a]pyrimidin-6-yl)piperazin-1-yl)-2-oxoethyl)pyrrolidine-1-carboxamide]"
> 7.00,> 7.00,"CCOC(=O)NCC(=O)N1CCN(c2c(CC)n(CC(=O)Nc3ccc(C(F)(F)F)cc3Cl)c3nc(C4=CCOCC4)nn3c2=O)CC1 [Example 167, Ethyl (2-(4-(4-(2-((2-chloro-4-(trifluoromethyl)phenyl)amino)-2-oxoethyl)-2-(3,6-dihydro-2H-pyran-4-yl)-5-ethyl-7-oxo-4,7-dihydro-[1,2,4]triazolo[1,5-a]pyrimidin-6-yl)piperazin-1-yl)-2-oxoethyl)carbamate]"
> 7.00,> 7.00,"CCc1c(N2CCN(C(=O)CNC(C)=O)CC2)c(=O)n2nc(C3=CCOCC3)nc2n1CC(=O)Nc1ccc(C(F)(F)F)cc1Cl [Example 168, 2-(6-(4-(Acetylglycyl)piperazin-1-yl)-2-(3,6-dihydro-2H-pyran-4-yl)-5-ethyl-7-oxo-[1,2,4]triazolo[1,5-a]pyrimidin-4(7H)-yl)-N-(2-chloro-4-(trifluoromethyl)phenyl)acetamide]"
6.00 to 7.00,> 7.00,"CCc1c(N2CCN(C(=O)CNC(=O)C(C)(C)C)CC2)c(=O)n2nc(C3=CCOCC3)nc2n1CC(=O)Nc1ccc(C(F)(F)F)cc1Cl [Example 169, N-(2-(4-(4-(2-((2-Chloro-4-(trifluoromethyl)phenyl)amino)-2-oxoethyl)-2-(3,6-dihydro-2H-pyran-4-yl)-5-ethyl-7-oxo-4,7-dihydro-[1,2,4]triazolo[1,5-a]pyrimidin-6-yl)piperazin-1-yl)-2-oxoethyl)pivalamide]"
6.00 to 7.00,6.00 to 7.00,"CCc1c(N2CCN(C(=O)CNS(C)(=O)=O)CC2)c(=O)n2nc(C3=CCOCC3)nc2n1CC(=O)Nc1ccc(C(F)(F)F)cc1Cl [Example 170, N-(2-Chloro-4-(trifluoromethyl)phenyl)-2-(2-(3,6-dihydro-2H-pyran-4-yl)-5-ethyl-6-(4-((methylsulfonyl)glycyl)piperazin-1-yl)-7-oxo-[1,2,4]triazolo[1,5-a]pyrimidin-4(7H)-yl)acetamide]"
